US20250332132A1, “SELENIUM-CONTAINING SUBSTANCE FOR TREATMENT OF CANCER” (SHANGHAI INSTITUTE OF NUTRITION AND HEALTH, CHINESE ACADEMY …, priority 2022, published 2025)
Blank lines part the entries; values can stand above or below the compound they belong to.

Experiments:
[1] = system: LLC cell subcutaneous xenograft tumors; assay: Subcutaneous LLC xenograft tumor model in mice (tumor growth, volume, weight); type: in vivo, mouse (C57BL/6J)
Experimental: FIG. 1 panel A: Experimental pattern diagram. Mice were first subcutaneously injected with LLC cells (2*10^5 cells per mouse) to establish xenograft tumors. After 14 days of tumor formation, mice received SeMet treatment for two weeks, with intraperitoneal injection of SeMet at a dose of 2 mg/kg, 5 times per week; FIG. 1 panel B: Tumor growth statistical curve in mice; FIG. 1 panel C: Representative photographic results of mouse tumors.
FIG. 5 illustrates the therapeutic effects of SeMet and PD-1 antibody on LLC cell subcutaneous xenograft tumors in mice. FIG. 5 panel A: Experimental pattern diagram. Mice were first subcutaneously injected with LLC cells (2*10^5 cells per mouse) to establish xenograft tumors. After 14 days of tumor formation, mice were treated with SeMet and PD-1 antibody alone or in combination by intraperitoneal injection for two weeks. The dosage of SeMet was 2 mg/kg, 5 times per week; the dosage of PD-1 antibody was 200 μg per mouse, 2 times per week; FIG. 5 panel B: Tumor growth statistical curve in mice; FIG. 5 panel C: Ratio of tumor to body weight in mice; FIG. 5 panel D: Representative photographic results of mouse tumors.
All animal experiments were approved by the Animal Ethics Committee of the Institute of Nutrition Sciences, Shanghai Institutes for Biological Sciences, Chinese Academy of Sciences, and were conducted in accordance with the protocols approved by the Animal Care and Use Committee of Shanghai Institutes for Biological Sciences. Six-week-old C57BL/6J mice were purchased from Shanghai Slake Experimental Animal Co., Ltd. and were housed in an SPF-grade animal facility. […] The tumor size was measured every two days, and the tumor volume (mm^3) was calculated using the following formula: ½×a×b^2, wherein a was the long diameter and b was the short diameter of the tumor. After the mice were euthanized, the tumors were excised, weighed, and the average weight of tumors in each group was calculated. The excised tumors were fixed with paraformaldehyde for subsequent immunohistochemical or immunofluorescence analysis.
C57BL/6J mice were subcutaneously injected with LLC cells (2*10^5 cells per mouse) to establish xenograft tumors. After 14 days of tumor formation, mice received SeMet treatment for two weeks (FIG. 1 panel A).
Subsequently, we investigated the therapeutic effects of SeMet and PD-1 antibody used alone or in combination on LLC cell subcutaneous xenograft tumors in mice. Mice were first subcutaneously injected with LLC cells (2*10^5 cells per mouse) to establish xenograft tumors. After 14 days of tumor formation, mice were treated with SeMet and PD-1 antibody alone or in combination by intraperitoneal injection for two weeks. The dosage and frequency of SeMet were the same as previously described, while the dosage of PD-1 antibody was 200 μg per mouse, 2 times per week (FIG. 5 panel A).
An L-selenomethionine was used to construct an N-acetyl-selenomethionine (N-Ac-SeMet) to improve its stability. To verify the therapeutic effect of the N-acetyl-selenomethionine on lung cancer, C57BL/6J mice were subcutaneously injected with LLC cells (2*10^5 cells per mouse) to establish xenograft tumors and divided into four groups: control group, selenomethionine (SeMet) treated group, N-acetyl-selenomethionine (N-Ac-SeMet) treated group, and anti-PD1 treated group. After 14 days of tumor formation, the mice in each group were treated for two weeks.

[2] = system: CD45+ immune cells, CD25+Foxp3+ Treg cells, IL-17a+ TH17 cells; assay: Flow cytometry of immune cells in LLC xenograft tumors; type: in vivo, mouse (C57BL/6J)
Experimental: Preparation of single-cell suspension from mouse tumor cells: 200 mg of mouse tumor tissue was obtained, cut into pieces and added to 2.43 ml of tumor digestion solution, followed by digestion in a 37° C. shaking water bath for 30 minutes. Flow cytometry staining included surface antigen staining and intracellular factor (cytokines and transcription factors) staining. For the cytokine detection, broad-spectrum activation inhibitors (PMA, ionomycin, or BFA, added at a ratio of 1:1000) were first prepared with the RPMI-1640 medium. 100 μl of each reagent was added to resuspend the cells, and the cells were then transferred to a 96-well plate and treated in a 37° C. cell incubator for 4-6 h. Subsequently, 200 μl of FACS buffer was added, and the cells were pipetted to mix evenly before transferred to a 1.5 ml eppendorf tube. The tube was centrifuged at 350 g for 5 minutes, and the supernatant was carefully aspirated. Cells were resuspended in 100 μl of PBS. For the surface antigen staining, the above steps were omitted. The cell suspension was placed on ice, and live/dead dye (at a ratio of 1:1000) was added. Staining was performed on ice in darkness for 30 minutes. Cells were washed with 1 ml of PBS, centrifuged at 350 g for 5 minutes, and the supernatant was carefully removed. The cell precipitate was resuspended in the FACS buffer, and the blocking antibody CD16/CD32 was added at a ratio of 1:200. The mixture was placed on ice in darkness for 30 minutes. Subsequently, surface antibodies were added at a ratio of 1:200: CD45, CD3, CD4, and CD25 antibodies were sequentially added for Treg cell surface staining; CD45, CD3, and CD4 antibodies were sequentially added for Th17 cell staining. Incubation was performed on ice in darkness for 30 minutes. Cells were washed with 1 ml of the FACS buffer, then centrifuged at 350 g for 5 minutes, and the supernatant was carefully removed. For intracellular factor staining, 250 μl of the fixation/permeabilization solution was added, and the cells were incubated on ice in darkness for 2 h. Then, 1 ml of the fixation/permeabilization wash buffer was added, the cells were centrifuged at 500 g for 5 minutes, and the supernatant was carefully removed. Cells were resuspended in the fixation/permeabilization wash buffer, and intracellular antibodies Foxp3 and IL-17A were added at a ratio of 1:200. The cells were incubated on ice in darkness for 30 minutes. After washing with 1 ml of the FACS buffer and centrifugation at 500 g for 5 minutes, the supernatant was carefully removed. Cells were resuspended in 200 μl of the FACS buffer and prepared for flow cytometry analysis.

[3] = system: selenoproteins; assay: qPCR / Western blot of selenoprotein expression in LLC xenograft tumors; type: in vivo, mouse (C57BL/6J)
[4] = system: PD-L1; assay: qPCR, WB and immunofluorescence of PD-L1 expression in LLC xenograft tumors; type: in vivo, mouse (C57BL/6J); details: immunofluorescence, FIG. 4
[5] = Selenium content in subcutaneous xenograft tumors; type: in vivo, mouse; details: mice, after SeMet treatment
[6] = system: CD4 and Foxp3; assay: qPCR of CD4 and Foxp3 expression in LLC xenograft tumors; type: in vivo, mouse (C57BL/6J); details: vs control group, FIG. 7A
Experimental: After the cells were cultured or treated, the medium was discarded, and the cells were washed once with ice-cold PBS. Then, 1 mL of Trizol reagent was added, and the cells were completely blown down. If it was for the tissue, 10-20 mg of tissue was homogenized into a homogenate using a grinder, with the addition of steel beads and 1 mL of Trizol. 200 μL of chloroform was added into the cell or tissue homogenate in 1 mL of Trizol, mixed vigorously, and placed on ice for 5 minutes. The mixture was centrifuged at 12,000 rpm for 10 minutes at 4° C. Then, 400 μL of the supernatant was carefully aspirated and added to an equal volume of isopropanol, vigorously mixed, and placed on ice for 15 minutes and centrifuged again at 12,000 rpm for 10 minutes at 4° C. Afterwards, a white RNA precipitate was visible at the bottom. The supernatant was carefully discarded, and 1 ml of 75% ethanol (diluted with DEPC-treated water) was added. […] A certain volume of DEPC-treated water was added to dissolve the RNA, and the concentration was measured. […] The genomic DNA removal reaction system was as follows: According to the gene primers to be detected, the above-mentioned Mix without the cDNA template was prepared, mixed thoroughly, and kept on ice until use. […] The detection program was as follows: After detection, the relative gene expression levels were calculated using the 2^−┐┐T method.

[7] = system: B16 melanoma cells; assay: Subcutaneous B16 melanoma xenograft tumor model in mice; type: in vivo, mouse (C57BL/6J); details: C57BL/6J mice, B16 2*10^5 cells s.c.; treated two weeks from day 14; FIG. 10
Experimental: To verify the therapeutic effect of selenomethionine (SeMet) on melanoma, C57BL/6J mice were subcutaneously injected with B16 melanoma cells (2*10^5 cells per mouse) to establish xenograft tumors. After 14 days of tumor formation, the mice were treated with SeMet for two weeks (FIG. 10 panel A).

[8] = system: Treg cells, IL-17a-secreting TH17 cells; assay: Flow cytometry of Treg and TH17 cells in B16 xenograft tumors; type: in vivo, mouse (C57BL/6J)
Experimental: (§1) Preparation of single-cell suspension from mouse tumor cells: 200 mg of mouse tumor tissue was obtained, cut into pieces and added to 2.43 ml of tumor digestion solution, followed by digestion in a 37° C. shaking water bath for 30 minutes. Flow cytometry staining included surface antigen staining and intracellular factor (cytokines and transcription factors) staining. For the cytokine detection, broad-spectrum activation inhibitors (PMA, ionomycin, or BFA, added at a ratio of 1:1000) were first prepared with the RPMI-1640 medium. 100 μl of each reagent was added to resuspend the cells, and the cells were then transferred to a 96-well plate and treated in a 37° C. cell incubator for 4-6 h. Subsequently, 200 μl of FACS buffer was added, and the cells were pipetted to mix evenly before transferred to a 1.5 ml eppendorf tube. The tube was centrifuged at 350 g for 5 minutes, and the supernatant was carefully aspirated. Cells were resuspended in 100 μl of PBS. For the surface antigen staining, the above steps were omitted. The cell suspension was placed on ice, and live/dead dye (at a ratio of 1:1000) was added. Staining was performed on ice in darkness for 30 minutes. Cells were washed with 1 ml of PBS, centrifuged at 350 g for 5 minutes, and the supernatant was carefully removed. […]

[9] = system: colon cancer CT26 cells; assay: Orthotopic CT26 colon cancer model in mice; type: in vivo, mouse (BALB/C); details: BALB/C mice, CT26 tumor pieces implanted orthotopically at cecal end; treatment from second day; effects similar to anti-PD1; FIG. 12 A-B
From the text: To verify the therapeutic effect of selenomethionine (SeMet) on colon cancer, BALB/C mice were subcutaneously inoculated with colon cancer CT26 cells. After subcutaneous xenograft tumors grew to a certain size, the tumors were cut into 1 mm*1 mm*1 mm pieces that were then orthotopically implanted at the cecal end of the mice. SeMet intervention was initiated on the second day after orthotopic tumor formation.

[10] = system: Treg cells, IL-17a-secreting TH17 cells; assay: Flow cytometry of Treg and TH17 cells in CT26 colon tumors; type: in vivo, mouse (BALB/C)
Experimental: as §1

[11] = NSCLC subcutaneous xenograft tumor model, vs control group, summary statement
[12] = NSCLC subcutaneous xenograft tumor model, summary statement

SMILES: C[Se]CC[C@H](NC(C)=O)C(=O)O [N-Ac-SeMet, N-acetyl-selenomethionine]
- average tumor weight ([1]; LLC s.c. tumors, end of treatment, vs control, p<0.05, FIG. 8C): significantly lower than those in the control group
- tumor weight-to-body weight ratio ([1]; LLC s.c. tumors, end of treatment, vs control, p<0.05, FIG. 8D): significantly lower than those in the control group
- tumor volume ([1]; LLC s.c. tumors, treated two weeks from day 14, Day 15, vs control, p<0.05, FIG. 8 A-B): significantly smaller than that in the control group
- proportion of Treg (CD25+Foxp3+) cells in tumors ([2]; LLC tumors, flow cytometry, FIG. 9 A-B): significantly reduced
- proportion of Th17 (IL-17a+) cells in tumors ([2]; LLC tumors, flow cytometry, FIG. 9 C-D): significantly increased

- selenium content in subcutaneous xenograft tumors [5]: significantly increased
SMILES: C[Se]CC[C@H](N)C(=O)O [SeMet, L-selenomethionine]
- growth of subcutaneous LLC tumors (tumor growth curves) ([1]; C57BL/6J mice, LLC 2*10^5 cells s.c., after 14 days SeMet 2 mg/kg i.p. 5 times per week for two weeks, FIG. 1): effectively inhibit the growth of subcutaneous LLC tumors
- tumor growth ([1]; LLC s.c. tumors, i.p. two weeks from day 14, SeMet 2 mg/kg 5 times per week, PD-1 antibody 200 μg per mouse 2 times per week, alone or combined, vs control, FIG. 5B): significantly reduced
- tumor mass [1, 11]: significantly reduced
- tumor volume [1, 11]: significantly reduced
- tumor growth [1, 12]: significantly inhibit tumor growth
- tumor volume and mass compared with the PD-1 group [1, 12]: no significant difference
- ratio of tumor to body weight ([1]; same study as FIG. 5B, FIG. 5C): validated this result
- visual inspection of excised subcutaneous mouse tumors ([1]; same study, FIG. 5D): significantly reduced
- expression of SOD1 and GPX1 at the protein level ([3]; LLC xenograft tumors, vs control group, WB, FIG. 3 M-N): significant increase
- expression of selenoproteins SOD1, SOD2, GPX1, GPX2, GPX4, Sephs2, Sepx1, SelS, SelP, Txnrd1, Txnrd2, Txnrd3 at the mRNA level ([3]; LLC xenograft tumors, vs control group, qPCR, FIG. 3 A-L): significant increase
- expression of selenoproteins GPX1, GPX2, SOD1, SOD2, Sephs2, Sepx1, SelS, Txnrd1, Txnrd2, SelF, Selk, SelW, MT2 at the mRNA level ([3]; LLC xenograft tumors, vs control group, qPCR, FIG. 6): increased
- levels of major selenoproteins, including GPX1, GPX4 ([3]; NSCLC tissues after treatment, summary statement): significantly increased
- expression of PD-L1 [4]: increased
- expression levels of CD4 and Foxp3 (mRNA) [6]: reduced
- number of CD45+ immune cells ([2]; LLC tumors digested into single cells, flow cytometry, FIG. 7 B-C): significantly increased
- proportion of CD25+Foxp3+ Treg cells ([2]; LLC tumors, flow cytometry, FIG. 7 D-E): significantly reduced
- proportion of IL-17a-secreting TH17 cells ([2]; LLC tumors, flow cytometry, FIG. 7 F-G): significantly increased
- number of Treg cells infiltrating the tumor ([2]; NSCLC tissues, flow sorting, summary statement): significantly reduced
- growth of subcutaneous B16 tumors [7]: effectively inhibited the growth of subcutaneous B16 tumors, with effects similar to anti-PD1 treatment
- proportion of Treg cells ([8]; FIG. 11 A, C): significantly reduced
- proportion of IL-17a-secreting TH17 cells ([8]; FIG. 11 B, D): significantly increased
- colon cancer growth [9]: effectively inhibited
- proportion of Treg cells ([10]; FIG. 12 C, E): significantly reduced
- proportion of IL-17a-secreting TH17 cells ([10]; FIG. 12 D, F): increased
